Assay results taken from US20120004129A1, “BIOMARKERS FOR INHIBITORS WITH ANTI-ANGIOGENIC ACTIVITY” (Merck Patent GmbH, priority 2008, published 2012).

How the values were obtained:
[1] = tested on: Xenograft models of colon, breast, and non-small cell lung cancer (NSCLC); conditions: cited from earlier work
EDN1 = EDN1 in HUVEC supernatants by ELISA; assay type: cell-based, human; conditions: vitronectin-coated dishes
Procedure: (§1) Since secreted biomarkers are relevant, the individual candidates were analysed in supernatants of integrin-inhibitor treated cells. HUVEC were treated either DI-17E6 or cilengitide. After different times, culture supernatants were collected and analysed for different biomarker candidates by Western blotting, ELISA or Luminex. Drug-induced biomarker regulation was evaluated in comparison to control cells.
Culture supernatants were collected analysed for EDN1 by ELISA. […] B) Regulation of EDN1 in response to cilengitide (FIG. 8).
HUVECs were cultured o/n in vitronectin-coated dishes and incubated with different concentration of Sutent or Sorafenib for 6 h to 48 h. Culture supernatants were collected analysed for EDN1 by ELISA. A) Regulation of EDN1 in response to Sutent. B) Regulation of EDN1 in response to Sorafenib (FIG. 11).

STC-1 = STC-1 protein in HUVEC supernatants by Western blotting; assay type: cell-based, human; conditions: vitronectin-coated dishes
Procedure: as §1
Culture supernatants were collected analysed for STC-1 by Western blotting. […] B) Regulation of STC-1 in response to cilengitide (FIG. 4).
HUVECs were cultured o/n in vitronectin-coated dishes and incubated with different concentration of Sutent or Sorafenib for 6 h to 48 h. Culture supernatants were collected analysed for STC-1 by Western blotting. A) Regulation of STC-1 in response to Sutent. B) Regulation of STC-1 in response to Sorafenib (FIG. 10).

IL-8 = IL-8 in HUVEC supernatants by Luminex; assay type: cell-based, human; conditions: vitronectin-coated dishes
Procedure: as §1
Culture supernatants were collected analysed for IL-8 by Luminex. […] B) Regulation of IL-8 in response to cilengitide (FIG. 6).
HUVECs were cultured o/n in vitronectin-coated dishes and incubated with different concentration of Sutent or Sorafenib for 6 h to 48 h. Culture supernatants were collected analysed for IL-8 by Luminex. A) Regulation of IL-8 in response to Sutent. B) Regulation of IL-8 in response to Sorafenib (FIG. 12).

[2] = phase III, cytokine-refractory advanced renal carcinoma patients; cited from earlier work
[3] = phase II trial; cited from earlier work
PDGF-BB = PDGF-BB in HUVEC supernatants by ELISA; assay type: cell-based, human; conditions: vitronectin-coated dishes, 6 h to 72 h
Procedure: as §1
Culture supernatants were collected analysed for PDGF-BB by ELISA. […] B) Regulation of PDFG-BB in response to cilengitide (FIG. 7).

HUVEC = test: Gene expression profiles of HUVEC after drug treatment (Affymetrix microarrays); assay type: cell-based, human; conditions: drug-treated vs non-treated or control-treated cells, filtered for secreted candidates
Description: (§2) Gene expression profiles were generated from experiments with each condition being tested in triplicates. For this, RNA was extracted from treated and control cells and hybridized to genome-wide Affymetrix oligonucleotide microarrays to generate gene expression profiles. After preprocessing with the GCRMA algorithm (Wu Z, Journal American Statistical Association 2004; 99: 909-917), Affymetrix GeneChip data were filtered to exclude probe sets with low variability, low signal or poor probe annotation. Genes were specifically filtered to obtain secreted candidates that might be detectable in body fluids in humans and could be monitored in a non-invasive way in patients.

MCP-1 = MCP-1 in HUVEC supernatants by Luminex; assay type: cell-based, human; conditions: vitronectin-coated dishes, 6 h to 72 h
Procedure: as §1
Culture supernatants were collected analysed for MCP-1 by Luminex. […] B) Regulation of MCP-1 in response to cilengitide (FIG. 5).

ERK1/2 = test: Western blot of integrin signalling in HUVEC plated on vitronectin: MAPK (ERK1/2); assay type: cell-based, human; conditions: for phosphorylation of MAPK: HUVEC, Western blot, following treatment
Procedure: as §2, with “To identify biomarkers associated with treatment, HUVEC were treated with cilengitide or DI-17E6. […] Gene expression” for “Gene expression”, “in patients. […] Genes which show under the given condition an extraordinary response / response change/responsiveness are underlined.” for “in patients.”
(§3) Besides growth factor stimulation, integrin-mediated adhesion to the extracellular matrix is important to promote cell proliferation, survival, and migration. Upon integrin ligation a wide range of intracellular signaling events are induced, including activation of Ras, MAPK, FAK, Src, Rac/Rho/cdc42 GTPases. To support survival of endothelial cells during angiogenesis, integrins alpha(V) beta(3)/(5) together with FAK are required for a sustained activation of the MAPK cascade (i.e. ERK1/2). […] After 24 h of treatment, cell lysates were prepared and analysed by Western blotting. Effects on signaling pathways were evaluated by comparing the ratio of phosphorylated to total levels of the respective signaling molecule in order to account for potential effects arising from cell detachment.

activin A = test: Activin A in HUVEC supernatants by ELISA; assay type: cell-based, human; conditions: vitronectin-coated dishes, 6 h to 72 h
Procedure: as §1
Culture supernatants were collected analysed for activin A by ELISA. […] B) Regulation of activin A in response to cilengitide (FIG. 9).

FAK = test: Western blot of integrin signalling in HUVEC plated on vitronectin: FAK; assay type: cell-based, human; conditions: for phosphorylation of FAK: HUVEC, Western blot, following treatment
Procedure: as §2, with “To identify biomarkers associated with treatment, HUVEC were treated with cilengitide or DI-17E6. […] Gene expression” for “Gene expression”, “in patients. […] Genes which show under the given condition an extraordinary response / response change/responsiveness are underlined.” for “in patients.”
as §3

ADAMTS1 = ADAMTS1 protein in HUVEC supernatants by Western blotting; assay type: cell-based, human; conditions: vitronectin-coated dishes, 6 h to 72 h, vs control cells
Procedure: as §1
Culture supernatants were collected analysed for ADAMTS1 by Western blotting.
HUVECs were cultured o/n in vitronectin-coated dishes and incubated with different concentration of cilengitide for 6 h to 72 h. Culture supernatants were collected analysed for ADAMTS1 by Western blotting. A) Cilengitide mediated regulation of ADAMTS1 (65 kD and 85 kD). (FIG. 3).

IL-6 = test: Plasma IL-6 by Luminex in monkeys with matrigel plugs; assay type: in vivo, Cynomolgus monkeys; conditions: DI-17E6-treated vs placebo-treated animals, 6 days
Description: A) Regulation of CRP. B) Regulation of IL-6 (FIG. 14).

[4] = tested on: angiogenesis in matrigel plugs; test: bFGF-induced angiogenesis in matrigel plugs in monkeys (hemoglobin content); assay type: in vivo, Cynomolgus monkeys; conditions: single i.v. infusion at 100, 30, 10, or 3 mg/kg; after 6 days; 5 μg/mL bFGF
Procedure: In this model, angiogenesis was induced in matrigel plugs by the angiogenic growth factor bFGF. Matrigel plugs containing bFGF were implanted subcutan into the abdomen of healthy Cynomologus monkeys, and the animals were injected with DI-17E6 i.v. at different doses immediately thereafter. Evaluation of angiogenesis was carried out after matrigel implantation by quantification of the hemoglobin content in the matrigel plugs. Each condition was tested in different animals implanted with matrigel plugs.
Angiogenesis was induced in subcutaneous matrigel implants containing 5 μg/mL of bFGF in Cynomolgus monkeys. […] After 6 days, angiogenesis was quantified by measuring the hemoglobin content in the matrigel plugs. * denotes a p-value <0.05 and ** denotes a p-value <0.01 (FIG. 13).

CRP = conditions: DI-17E6-treated vs placebo-treated animals, 6 days
Procedure: Absolute concentrations of different proteins were measured by Luminex by comparing to respective standards.
Plasma was collected and analysed for CRP and IL-6 by Luminex. A) Regulation of CRP. B) Regulation of IL-6 (FIG. 14).

[5] = HUVEC on vitronectin, 24 h, DI-17E6 0.01 to 10 μg/mL, cilengitide 0.01 to 10 μM
[6] = integrin inhibitors, 6 h to 72 h
[7] = integrin inhibitors, 24 h to 72 h

Molecule | PDGF-BB level in HUVEC supernatants (PDGF-BB) | MCP-1 level in HUVEC supernatants (MCP-1) | phosphorylation of MAPK (ERK1/2) | EDN1 level in HUVEC supernatants (EDN1; [6]) | STC-1 protein level in HUVEC supernatants (STC-1; [7]) | IL-8 level in HUVEC supernatants (IL-8; [6]) | Activin A level in HUVEC supernatants (activin A) | phosphorylation of FAK (FAK) | ADAMTS1 protein level in HUVEC supernatants (ADAMTS1) | further results
CNC(=O)c1cc(Oc2ccc(NC(=O)Nc3ccc(Cl)c(C(F)(F)F)c3)cc2)ccn1 [Sorafenib] | – | – | – | – | – | – | – | – | – | tumor angiogenesis, as measured by anti-CD31 immunostaining [1]: significant inhibition of tumor angiogenesis; EDN1 level in HUVEC supernatants (EDN1; kinase inhibitors, 6 h to 48 h): up-regulated; STC-1 protein level in HUVEC supernatants (STC-1; kinase inhibitors, 6 h to 48 h): down-regulated; IL-8 level in HUVEC supernatants (IL-8; kinase inhibitors, 6 h to 48 h): reduced protein levels; side effect: diarrhea [2]: 33%; side effect: fatigue [2]: 26%; side effect: hand-foot skin reactions [2]: 27%; side effect: hypertension [2]: 11%; side effect: rash [2]: 34%; additional patients who experienced tumor shrinkage [3]: 9%; patients who experienced stable disease for at least 4 months [3]: 43%
CC(C)[C@H]1C(=O)N[C@@H](CCCN=C(N)N)C(=O)NCC(=O)N[C@@H](CC(=O)O)C(=O)N[C@H](Cc2ccccc2)C(=O)N1C [cilengitide, cyclo-(Arg-Gly-Asp-DPhe-NMeVal)] | down-regulated | down-regulated | inhibited | down-regulated | up-regulated | down-regulation | down-regulated | inhibited | up-regulated | Genes down-regulated in response to treatment (RNA level) (HUVEC): INHBA, EDN1, FST, DKK4, BMP4, MCP1, HHIP, NTN4, PHLDB2, PVR, CYR61, AUTS2, MERTK, FSTL3, APLN, PTX3, ANGPTL4, CTGF, SPOCK, IL8, NRG1, DKK3, CD44, BCHE, BDNF, FBXO4, EFEMP1, STC2; Genes up-regulated in response to treatment (RNA level) (HUVEC): ADAMTS 9, DAF, STC1, ADAMTS1, LAMAS, TCN2, SRPX, ADAM15, GUSB, HYAL2, PLAUR, CD40, NOTCH1, ENPP4; activation of ERK1/2 (ratio of phosphorylated to total) (ERK1/2; [5]): blocked activation; activation of FAK (ratio of phosphorylated to total) (FAK; [5]): blocked activation
DI-17E6: antibody (CAS No: 1105038-73-0) having the biological characteristics of monoclonal mouse antibody 17E6, inhibits the αv-integrin subunit; improved immunogenicity (antibody, chains of the INN, looked up, V domains shown) VH: QVQLQQSGGELAKPGASVKVSCKASGYTFSSFWMHWVRQAPGQGLEWIGYINPRSGYTEYNEIFRDKATMTTDTSTSTAYMELSSLRSEDTAVYYCASFLGRGAMDYWGQGTTVTVSS VL: DIQMTQSPSSLSASVGDRVTITCRASQDISNYLAWYQQKPGKAPKLLIYYTSKIHSGVPSRFSGSGSGTDYTFTISSLQPEDIATYYCQQGNTFPYTFGQGTKVEIK | down-regulated | down-regulated | inhibited | down-regulated | up-regulated | up-regulated | down-regulated | inhibited | up-regulated | plasma IL-6 (IL-6): up-regulated; angiogenesis (hemoglobin content in the matrigel plugs) [4]: blocked the formation of new blood vessel at all doses; plasma CRP (CRP): up-regulated
